The results in this text go back to US20250171426A1, “PYRIMIDINEDIONE-BASED COMPOUNDS AS AXL, C-MET, AND MER INHIBITORS AND METHODS OF USE THEREOF” (CMG Pharmaceutical Co., Ltd., priority 2022, published 2025).

One experiment has as its target T1, AXL (Homo sapiens, UniProt P30530).
T1 sequence (P30530 26-894): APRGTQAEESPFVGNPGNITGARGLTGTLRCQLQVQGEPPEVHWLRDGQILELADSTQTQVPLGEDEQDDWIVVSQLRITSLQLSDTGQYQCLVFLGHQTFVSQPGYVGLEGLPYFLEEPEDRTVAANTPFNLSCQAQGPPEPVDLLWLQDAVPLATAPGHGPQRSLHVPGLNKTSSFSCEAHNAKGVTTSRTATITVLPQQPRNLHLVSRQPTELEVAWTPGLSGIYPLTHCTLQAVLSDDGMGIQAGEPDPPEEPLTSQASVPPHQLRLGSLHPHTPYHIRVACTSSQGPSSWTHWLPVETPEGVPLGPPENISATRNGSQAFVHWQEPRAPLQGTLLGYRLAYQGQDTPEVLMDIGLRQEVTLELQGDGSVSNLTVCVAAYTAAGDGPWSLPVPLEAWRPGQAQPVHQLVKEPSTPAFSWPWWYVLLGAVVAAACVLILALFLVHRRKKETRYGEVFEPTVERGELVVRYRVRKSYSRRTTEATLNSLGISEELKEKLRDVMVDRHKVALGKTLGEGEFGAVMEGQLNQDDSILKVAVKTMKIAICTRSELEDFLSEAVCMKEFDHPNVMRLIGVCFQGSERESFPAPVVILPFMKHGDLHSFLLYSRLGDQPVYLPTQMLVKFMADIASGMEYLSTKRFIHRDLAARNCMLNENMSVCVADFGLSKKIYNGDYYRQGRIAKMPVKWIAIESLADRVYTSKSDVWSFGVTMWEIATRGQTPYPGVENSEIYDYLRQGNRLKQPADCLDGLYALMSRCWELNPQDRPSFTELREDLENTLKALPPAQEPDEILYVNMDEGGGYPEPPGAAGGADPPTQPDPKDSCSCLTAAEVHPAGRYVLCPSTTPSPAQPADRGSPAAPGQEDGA
The experiment can be described thus: Enzymatic assay (ADP-Glo kinase reaction), AXL. The format is biochemical. The settings on record: 10 μM ATP, 60 min, ADP-GLO luminescence. The essentials:
(§1)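 For both AXL and c-MET, reactions in tyrosine kinase buffer used 0.2 μg/μL poly(Glu4,Tyr1) and 10 μM ATP with serially diluted inhibitor, 60 min at room temperature. ADP formed was read by ADP-Glo luminescence after 40 min reagent incubation.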

The next experiment deals with c-MET (Homo sapiens, UniProt P08581). The experiment can be described thus: Enzymatic assay (ADP-Glo kinase reaction), c-MET. The format is biochemical. The settings on record: 10 μM ATP, 60 min, ADP-GLO luminescence. In a few lines:
as §1
A general note: ADP-Glo turns the ADP formed in a reaction into a luminescent signal.

The next experiment has as its target T2, MER (Homo sapiens, UniProt Q12866).
T2 sequence (Q12866 21-999): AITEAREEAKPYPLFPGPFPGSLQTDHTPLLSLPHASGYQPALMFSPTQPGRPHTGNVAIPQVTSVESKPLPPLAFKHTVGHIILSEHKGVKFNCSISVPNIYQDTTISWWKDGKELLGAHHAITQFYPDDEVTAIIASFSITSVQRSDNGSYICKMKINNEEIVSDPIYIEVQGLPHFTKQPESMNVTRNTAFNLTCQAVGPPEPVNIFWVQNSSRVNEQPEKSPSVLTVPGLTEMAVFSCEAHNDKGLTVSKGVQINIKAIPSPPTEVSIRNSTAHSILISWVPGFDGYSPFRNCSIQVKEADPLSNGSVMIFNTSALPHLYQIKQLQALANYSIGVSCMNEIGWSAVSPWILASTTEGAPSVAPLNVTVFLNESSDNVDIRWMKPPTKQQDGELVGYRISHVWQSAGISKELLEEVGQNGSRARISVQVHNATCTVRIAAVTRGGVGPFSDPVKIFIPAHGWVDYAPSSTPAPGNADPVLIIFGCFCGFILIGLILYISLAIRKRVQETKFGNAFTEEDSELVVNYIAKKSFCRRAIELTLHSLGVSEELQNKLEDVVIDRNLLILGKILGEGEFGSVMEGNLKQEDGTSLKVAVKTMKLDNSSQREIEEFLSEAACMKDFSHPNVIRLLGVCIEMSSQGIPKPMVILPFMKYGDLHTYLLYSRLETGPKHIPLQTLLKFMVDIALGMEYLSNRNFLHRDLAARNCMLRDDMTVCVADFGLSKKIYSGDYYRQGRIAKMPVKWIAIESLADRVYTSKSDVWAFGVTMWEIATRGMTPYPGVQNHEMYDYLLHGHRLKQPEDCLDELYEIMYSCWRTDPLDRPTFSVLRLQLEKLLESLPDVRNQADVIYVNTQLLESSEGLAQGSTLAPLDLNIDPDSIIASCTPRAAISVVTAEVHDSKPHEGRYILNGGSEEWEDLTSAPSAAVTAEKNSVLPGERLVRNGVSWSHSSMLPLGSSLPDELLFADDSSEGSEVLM
The experiment can be described thus: Enzymatic assay (ADP-Glo kinase reaction), MER. The format is biochemical. The settings on record: 10 μM ATP, 60 min, ADP-GLO luminescence. In a few lines: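 ADP-Glo luminescence assay of MER in tyrosine kinase buffer with 0.2 μg/μL poly(Glu4,Tyr1) substrate and 10 μM ATP. Serially diluted inhibitor reacted 60 min at room temperature. IC50 taken from luminescence after ADP-Glo and detection steps.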

A further experiment concerns HCC827OR. The experiment can be described thus: Cell viability assay (CellTiter-Glo 2.0), osimertinib-resistant HCC827/OR cells. In kind it is cell-based, human. From the text: (§2) To explore c-MET and AXL mechanisms of EGFR TKI resistance, resistant cells of the EGFR TKI hypersensitive EGFR exon 19 mutant NSCLC cell line, HCC827 and PC9 were generated by exposing these cells to increasing concentrations of EGFR TKI for over 3 months.
(§3) Gefitinib-resistant cells were referred to as HCC827/GR. […] Osimertinib-resistant cells were referred to as HCC827/OR.
In general terms: ATP-based viability assays read luminescence as a measure of living cells.

For the next experiment, the system named is HCC827ER. The experiment can be described thus: Cell viability assay (CellTiter-Glo 2.0), erlotinib-resistant HCC827/ER cells. The format is cell-based, human. The settings on record: 72 h, combination of EGFR TKI and inhibitor of Formula (I), read-out: Relative cell viability, IC50 (nM) HCC827ER.
From the text: as §2, §3

The next experiment has as its system HCC827GR. The experiment can be described thus: Cell viability assay (CellTiter-Glo 2.0), gefitinib-resistant HCC827/GR cells. The format is cell-based, human. The settings on record: 72 h, combination of EGFR TKI and inhibitor of Formula (I), read-out: Relative cell viability, IC50 (nM) HCC827GR.
From the text: as §2
The human cell line HCC827 was purchased from the American Type Culture Collection (Manassas, VA), and the PC9 cell line was obtained from RIKEN Cell Bank (Ibaraki, Japan). […] Gefitinib-resistant cells were referred to as HCC827/GR. […] Osimertinib-resistant cells were referred to as HCC827/OR.
(§4) Cell viability assays were carried out by plating 1,000 cells per well of HCC827 or PC9 resistant cells, respectively, into white transparent-bottom 384-well plates. The cells were treated with each TKI across a 10-dose range from 1 nM to 10,000 nM. After 72 h of drug treatment, cell viability was measured using the CellTiter-Glo 2.0 assay (Promega, Madison, WI).
as §4

In another experiment the test system is PC9ER. The experiment can be described thus: Cell viability assay (CellTiter-Glo 2.0), erlotinib-resistant PC9/ER cells. The format is cell-based. The settings on record: 72 h, combination of EGFR TKI and inhibitor of Formula (I), read-out: Relative cell viability, IC50 (nM) PC9ER.
From the text: as §2, §3

Sequence of c-MET (P08581 25-1390): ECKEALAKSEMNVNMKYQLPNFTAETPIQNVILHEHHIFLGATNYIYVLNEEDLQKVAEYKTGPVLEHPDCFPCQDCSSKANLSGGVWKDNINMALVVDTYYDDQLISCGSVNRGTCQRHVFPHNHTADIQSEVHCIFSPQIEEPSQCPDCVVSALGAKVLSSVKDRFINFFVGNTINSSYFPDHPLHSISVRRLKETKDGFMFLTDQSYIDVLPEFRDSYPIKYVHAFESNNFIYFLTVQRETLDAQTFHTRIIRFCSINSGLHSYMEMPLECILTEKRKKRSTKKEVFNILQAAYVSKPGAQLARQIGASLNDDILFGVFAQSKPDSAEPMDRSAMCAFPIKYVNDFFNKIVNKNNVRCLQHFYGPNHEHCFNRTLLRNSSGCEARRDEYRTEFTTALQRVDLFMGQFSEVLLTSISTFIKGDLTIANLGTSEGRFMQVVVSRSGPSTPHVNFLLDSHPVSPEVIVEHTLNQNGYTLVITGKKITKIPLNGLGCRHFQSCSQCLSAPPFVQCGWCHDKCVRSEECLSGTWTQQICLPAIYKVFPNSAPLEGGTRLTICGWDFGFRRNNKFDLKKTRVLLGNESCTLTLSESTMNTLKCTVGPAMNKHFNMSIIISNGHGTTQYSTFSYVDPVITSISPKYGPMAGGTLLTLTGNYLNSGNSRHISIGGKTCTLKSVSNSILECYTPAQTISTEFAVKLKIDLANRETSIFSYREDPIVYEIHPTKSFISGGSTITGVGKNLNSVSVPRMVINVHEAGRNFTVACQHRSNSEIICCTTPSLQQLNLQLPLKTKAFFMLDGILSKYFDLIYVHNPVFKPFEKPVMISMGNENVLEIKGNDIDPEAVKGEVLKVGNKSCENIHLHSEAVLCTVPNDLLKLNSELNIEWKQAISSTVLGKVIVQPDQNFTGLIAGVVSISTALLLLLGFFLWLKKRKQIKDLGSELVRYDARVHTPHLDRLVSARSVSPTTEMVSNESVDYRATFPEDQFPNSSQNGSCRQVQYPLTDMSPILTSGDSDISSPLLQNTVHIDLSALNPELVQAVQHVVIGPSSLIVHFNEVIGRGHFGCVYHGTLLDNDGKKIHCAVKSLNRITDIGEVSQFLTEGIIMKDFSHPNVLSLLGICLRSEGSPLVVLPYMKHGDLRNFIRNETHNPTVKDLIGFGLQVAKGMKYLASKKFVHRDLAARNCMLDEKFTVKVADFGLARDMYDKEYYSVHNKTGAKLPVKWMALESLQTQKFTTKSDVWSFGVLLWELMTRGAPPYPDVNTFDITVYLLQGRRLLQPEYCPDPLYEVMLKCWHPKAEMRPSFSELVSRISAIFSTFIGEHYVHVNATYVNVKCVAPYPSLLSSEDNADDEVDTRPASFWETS

`C=CCn1cc(C(=O)Nc2ccc(Oc3ccnc(N)c3C#CC(C)(C)N3CCN(C)CC3)c(F)c2)c(=O)n(CC=C)c1=O` [Example 68, 1,3-diallyl-N-(4-(2-amino-3-(3-methyl-3-(4-methylpiperazin-1-yl)but-1-ynyl)pyridin-4-yloxy)-3-fluorophenyl)-2,4-dioxo-1,2,3,4-tetrahydropyrimidine-5-carboxamide]: the figures for the IC50 on AXL, on c-MET and on MER were under 1000 nM, under 1000 nM and under 100 nM, respectively.
Regarding `C=CCn1cc(C(=O)Nc2ccc(Oc3ccnc(N)c3C#CCC3CCN(C)CC3)c(F)c2)c(=O)n(CC=C)c1=O` [Example 69, 1,3-diallyl-N-(4-(2-amino-3-(3-(1-methylpiperdin-4-yl)prop-1-ynyl)pyridin-4-yloxy)-3-fluorophenyl)-2,4-dioxo-1,2,3,4-tetrahydropyrimidine-5-carboxamide], the figures for the IC50 against AXL, on c-MET and against MER were under 100 nM, under 1000 nM and under 100 nM, respectively.
For `C=CCn1cc(C(=O)Nc2ccc(Oc3ccnc(N)c3C#CC(C)(C)N3CCOCC3)c(F)c2)c(=O)n(CC=C)c1=O` [Example 70, 1,3-diallyl-N-(4-(2-amino-3-(3-methyl-3-morpholinobut-1-ynyl)pyridin-4-yloxy)-3-fluorophenyl)-2,4-dioxo-1,2,3,4-tetrahydropyrimidine-5-carboxamide], the IC50 is under 1000 nM on AXL, under 1000 nM at c-MET and under 10 nM on MER.
`C=CCn1cc(C(=O)Nc2ccc(Oc3ccnc(N)c3C#CCC3CCNCC3)c(F)c2)c(=O)n(CC=C)c1=O` [Example 71, 1,3-dialyl-N-(4-(2-amino-3-(3-(piperidin-4-yl)prop-1-ynyl)pyridin-4-yloxy)-3-fluorophenyl)-2,4-dioxo-1,2,3,4-tetrahydropyrimidine-5-carboxamide]: the IC50 against AXL is under 100 nM; against c-MET, under 100 nM; against MER it was under 10 nM.
On to `C=CC(=O)Nc1cc(Nc2nccc(-c3cn(C)c4ccccc34)n2)c(OC)cc1N(C)CCN(C)C` [osimertinib, reference compound], for which the “fold higher resistance than the parental cells, HCC827/OR” value in the experiment with HCC827OR (HCC827/OR vs HCC827) is recorded as 3,000 fold.
For “N-(4-(2-amino-3-(3-piperidin-4-yl)prop-1-ynyl)pyridin-4-yloxy)-3-fluorophenyl)-3-cyclohexyl-1-ethyl-2,4-dioxo-1,2,3,4-tetrahydropyrimidine-5-carboxamide [Example 65]”, the IC50 is under 1000 nM in the experiment on HCC827ER; under 10000 nM with HCC827OR (72 h, combination of EGFR TKI and inhibitor of Formula (I), EGFR TKI-resistant cells, read-out: Relative cell viability, IC50 (nM) HCC827OR); under 1000 nM in the experiment with HCC827GR; under 1000 nM in the experiment on PC9ER.
